From US11919901B2 (Syndax Pharmaceuticals, Inc., priority 2021, dated 2024)

Tests used:
hERG = hERG (Homo sapiens (Human), UniProt Q12809); assay: Patch clamp assay (hERG tail currents, whole-cell); format: cell-based; conditions: hERG transfected HEK 293 cells; for hERG % Remaining 30 μM: 30 μM compound; for hERG % Remaining 10 μM: 10 μM compound
Protocol: The 35 mm culture dishes upon which cells were seeded at a density allowing single cells to be recorded were placed on the dish holder of the microscope and continuously perfused (at approximately 1 mL/min) with the bath solution described in section 4.6. All solutions applied to cells including the pipette solution were maintained at room temperature (19° C. to 30° C.). After formation of a Gigaohm seal between the patch electrodes and individual hERG stably transfected HEK 293 cells (pipette resistance range: 2.0 MΩ2 to 7.0 MΩ; seal resistance range: >1GΩ) the cell membrane across the pipette tip was ruptured to assure electrical access to the cell interior (whole-cell patch-configuration). In case the quality of the seal was poor, the process of seal formation was repeated with a different cell and a new pipette. As soon as a stable seal could be established, hERG outward tail currents were measured upon depolarization of the cell membrane to +20 mV for 2s (activation of channels) from a holding potential of −80 mV and upon subsequent repolarization to −40 mV for 3 s. This voltage protocol (as shown below) was run at least 10 times at intervals of 10 s. If current density was judged to be too low for measurement, another cell was recorded.
During wash-in of the test item the voltage protocol indicated above was run continuously again at 10 s intervals until the steady-state level of block was reached.
The IC50 was determined by fitting the dose response curve with a 2-parameter logistic function (amax=100%).

Menin-MLL = Menin-MLL (Homo sapiens (Human), UniProt O00255); assay: Determination of binding constants (Ki) to Menin-MLL (HTRF); conditions: HTRF, 0.25 nM H-FL-Menin, 3.2 nM FITC-MLL-4-43, 24 hr incubation; for Ki: read-out: Menin-MLL Ki HTRF Assay: Ki
Menin-MLL, sequence (O00255 whole entry): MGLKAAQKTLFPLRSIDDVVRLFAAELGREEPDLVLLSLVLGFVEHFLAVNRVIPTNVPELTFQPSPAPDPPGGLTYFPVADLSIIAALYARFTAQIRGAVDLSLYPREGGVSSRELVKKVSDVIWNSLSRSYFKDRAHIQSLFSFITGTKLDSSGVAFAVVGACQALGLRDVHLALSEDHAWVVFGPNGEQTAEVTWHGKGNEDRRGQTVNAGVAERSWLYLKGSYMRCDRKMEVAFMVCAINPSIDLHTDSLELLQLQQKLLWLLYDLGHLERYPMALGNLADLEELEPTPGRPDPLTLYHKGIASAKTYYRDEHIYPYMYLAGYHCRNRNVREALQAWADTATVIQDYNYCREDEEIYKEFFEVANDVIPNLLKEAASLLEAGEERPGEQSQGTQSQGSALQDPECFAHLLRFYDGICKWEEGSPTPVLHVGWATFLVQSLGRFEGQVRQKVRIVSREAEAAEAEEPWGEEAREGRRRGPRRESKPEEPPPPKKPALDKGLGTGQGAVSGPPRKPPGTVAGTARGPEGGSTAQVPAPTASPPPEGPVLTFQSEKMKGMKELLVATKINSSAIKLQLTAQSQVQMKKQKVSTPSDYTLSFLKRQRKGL

hERG, sequence (Q12809 whole entry): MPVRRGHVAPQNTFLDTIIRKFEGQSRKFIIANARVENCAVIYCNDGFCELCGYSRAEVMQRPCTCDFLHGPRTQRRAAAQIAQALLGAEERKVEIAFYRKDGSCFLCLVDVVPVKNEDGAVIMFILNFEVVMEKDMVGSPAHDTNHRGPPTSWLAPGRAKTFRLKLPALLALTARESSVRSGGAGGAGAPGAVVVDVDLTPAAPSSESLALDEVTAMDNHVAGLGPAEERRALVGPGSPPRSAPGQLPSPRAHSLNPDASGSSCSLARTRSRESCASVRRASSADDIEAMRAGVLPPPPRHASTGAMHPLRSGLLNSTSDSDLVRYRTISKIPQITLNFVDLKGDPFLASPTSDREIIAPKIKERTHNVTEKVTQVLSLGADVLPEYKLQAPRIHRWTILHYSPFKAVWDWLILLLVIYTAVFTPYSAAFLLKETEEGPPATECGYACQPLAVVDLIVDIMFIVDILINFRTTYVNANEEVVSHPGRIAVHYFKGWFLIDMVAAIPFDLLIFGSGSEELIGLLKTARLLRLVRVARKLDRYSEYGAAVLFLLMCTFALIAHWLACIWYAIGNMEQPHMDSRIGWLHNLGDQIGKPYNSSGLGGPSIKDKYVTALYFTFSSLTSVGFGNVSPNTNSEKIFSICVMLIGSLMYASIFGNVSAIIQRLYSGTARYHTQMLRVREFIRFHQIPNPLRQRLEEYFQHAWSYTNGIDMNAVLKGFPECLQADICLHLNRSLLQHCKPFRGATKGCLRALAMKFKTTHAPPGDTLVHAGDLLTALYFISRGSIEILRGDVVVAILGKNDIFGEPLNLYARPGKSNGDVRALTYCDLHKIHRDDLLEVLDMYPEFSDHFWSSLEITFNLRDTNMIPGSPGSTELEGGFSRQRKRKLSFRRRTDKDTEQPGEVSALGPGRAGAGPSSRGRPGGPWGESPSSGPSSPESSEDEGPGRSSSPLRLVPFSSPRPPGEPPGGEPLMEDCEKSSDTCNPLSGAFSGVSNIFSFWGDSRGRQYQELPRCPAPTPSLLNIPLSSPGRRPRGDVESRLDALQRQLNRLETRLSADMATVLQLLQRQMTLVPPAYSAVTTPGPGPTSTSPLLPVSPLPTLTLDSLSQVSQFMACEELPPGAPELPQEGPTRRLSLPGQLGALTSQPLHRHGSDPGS

Structure (SMILES) | hERG % Remaining 30 μM (hERG) | Ki (Menin-MLL) [nM] | hERG % Remaining 10 μM (hERG) | EC50 (Menin-MLL) [nM] | hERG % Remaining 1 μM (hERG; 1 μM compound) | hERG % Remaining 3 μM (hERG; 3 μM compound) | hERG % Remaining 100 μM (hERG; 100 μM compound) | IC50 (hERG) [nM]
CC(C)N(C(=O)c1cc(F)ccc1Oc1cncnc1N1CC2(CCN(C[C@@H]3CC[C@@H](NS(=O)(=O)N4CC5(CCOC5)C4)CO3)CC2)C1)C(C)C [Compound 223, 2-((4-(7-(((2S,5R)-5-(6-Oxa-2-azaspiro[3.4]octane-2-sulfonamido)tetrahydro-2H-pyran-2-yl)methyl)-2,7-diazaspiro[3.5]nonan-2-yl)pyrimidin-5-yl)oxy)-5-fluoro-N,N-diisopropylbenzamide] | +++ (“+++” means ≥66%) | < 1 |  |  |  |  |  | 
CCN(CC)S(=O)(=O)N[C@@H]1CC[C@@H](CN2CCC3(CC2)CN(c2ncncc2Oc2ccc(F)cc2C(=O)N(C(C)C)[C@@H]2CCOC2)C3)OC1 [Compound 165, 2-((4-(7-(((2S,5R)-5-((N,N-Diethylsulfamoyl)amino)tetrahydro-2H-pyran-2-yl)methyl)-2,7-diazaspiro[3.5]nonan-2-yl)pyrimidin-5-yl)oxy)-5-fluoro-N-isopropyl-N-((R)-tetrahydrofuran-3-yl)benzamide] | ++ (“++” means ≥33% and <66%) | < 1 | +++ (“+++” means ≥66%) |  |  |  |  | 
C[C@@H]1COC[C@@H](C)N1C(=O)c1cc(F)ccc1Oc1cncnc1N1CC2(CCN(C[C@@H]3CC[C@@H](NS(=O)(=O)N4CCC[C@@H]4C)CO3)CC2)C1 [Compound 209, (S)-N-((3R,6S)-6-((2-(5-(2-((3R,5R)-3,5-Dimethylmorpholine-4-carbonyl)-4-fluorophenoxy)pyrimidin-4-yl)-2,7-diazaspiro[3.5]nonan-7-yl)methyl)tetrahydro-2H-pyran-3-yl)-2-methylpyrrolidine-1-sulfonamide] | +++ (“+++” means ≥66%) | < 1 |  |  |  |  |  | 
CC(C)N(CC(F)F)C(=O)c1cc(F)ccc1Oc1cncnc1N1CC2(CCN(C[C@@H]3CC[C@@H](NS(=O)(=O)c4nn(C)cc4F)CO3)CC2)C1 [Compound 241, N-(2,2-Difluoroethyl)-5-fluoro-2-((4-(7-(((2S,5R)-5-((4-fluoro-1-methyl-1H-pyrazole)-3-sulfonamido)tetrahydro-2H-pyran-2-yl)methyl)-2,7-diazaspiro[3.5]nonan-2-yl)pyrimidin-5-yl)oxy)-N-isopropylbenzamide] | ++ (“++” means ≥33% and <66%) | < 1 |  |  |  |  |  | 
CCNS(=O)(=O)N[C@@H]1CC[C@@H](CN2CCC3(CC2)CN(c2ncnnc2Oc2ccc(F)cc2C(=O)N(C(C)C)C(C)C)C3)OC1 [Compound 198] | +++ (“+++” means ≥66%) | < 1 |  |  |  |  |  | 
CC(C)N(C(=O)c1cc(F)ccc1Oc1cncnc1N1CC2(CCN(C[C@@H]3CC[C@@H](NS(=O)(=O)c4cnn(C)c4Cl)CO3)CC2)C1)C(C)C [Compound 82, 2-((4-(7-(((2S,5R)-5-((5-Chloro-1-methyl-1H-pyrazole)-4-sulfonamido)tetrahydro-2H-pyran-2-yl)methyl)-2,7-diazaspiro[3.5]nonan-2-yl)pyrimidin-5-yl)oxy)-5-fluoro-N,N-diisopropylbenzamide] | + (“+” means <33%) | < 1 | ++ (“++” means ≥33% and <66%) |  |  |  |  | 
CCS(=O)(=O)N[C@@H]1CC[C@@H](CN2CCC3(CC2)CN(c2ncncc2Oc2ccc(F)cc2C(=O)N(C(C)C)[C@@H]2CC[C@@H]2O)C3)OC1 [Compound 258, 2-((4-(7-(((2S,5R)-5-(Ethylsulfonamido)tetrahydro-2H-pyran-2-yl)methyl)-2,7-diazaspiro[3.5]nonan-2-yl)pyrimidin-5-yl)oxy)-5-fluoro-N-((1R,2S)-2-hydroxycyclobutyl)-N-isopropylbenzamide] | ++ (“++” means ≥33% and <66%) | < 1 | +++ (“+++” means ≥66%) | < 50 |  |  |  | 
CC(C)N(C(=O)c1cc(F)ccc1Oc1cncnc1N1CC2(CCN(C[C@@H]3CC[C@@H](NS(C)(=O)=O)CO3)CC2)C1)C(C)C [Compound 12, 5-fluoro-N,N-diisopropyl-2-((4-(7-(((2S,5R)-5-(methylsulfonamido)tetrahydro-2H-pyran-2-yl)methyl)-2,7-diazaspiro[3.5]nonan-2-yl)pyrimidin-5-yl)oxy)benzamide] | +++ (“+++” means ≥66%) | < 1 | +++ (“+++” means ≥66%) | < 50 | +++ (“+++” means ≥66%) | +++ (“+++” means ≥66%) | ++ (“++” means ≥33% and <66%) | ≥ 50000
CCN(C(=O)c1cc(F)ccc1Oc1cncnc1N1CC2(CCN(C[C@@H]3CC[C@@H](NS(=O)(=O)C4CC4)CO3)CC2)C1)C(C)C [Compound 4, 2-((4-(7-(((2S,5R)-5-(cyclopropanesulfonamido)tetrahydro-2H-pyran-2-yl)methyl)-2,7-diazaspiro[3.5]nonan-2-yl)pyrimidin-5-yl)oxy)-N-ethyl-5-fluoro-N-isopropylbenzamide] | +++ (“+++” means ≥66%) | < 1 | +++ (“+++” means ≥66%) | < 50 |  |  |  | ≥ 50000
CC(C)N(CC(F)F)C(=O)c1cc(F)ccc1Oc1nncnc1N1CC2(CCN(C[C@@H]3CC[C@@H](NS(=O)(=O)N4CCC4)CO3)CC2)C1 [Compound 189, 2-((5-(7-(((2S,5R)-5-(Azetidine-1-sulfonamido)tetrahydro-2H-pyran-2-yl)methyl)-2,7-diazaspiro[3.5]nonan-2-yl)-1,2,4-triazin-6-yl)oxy)-N-(2,2-difluoroethyl)-5-fluoro-N-isopropylbenzamide] | +++ (“+++” means ≥66%) | < 1 |  |  |  |  |  | 
CC(C)N(CC(F)F)C(=O)c1cc(F)ccc1Oc1cncnc1N1CC2(CCN(C[C@@H]3CC[C@@H](NS(=O)(=O)N(C)C)CO3)CC2)C1 [Compound 95, N-(2,2-Difluoroethyl)-2-((4-(7-(((2S,5R)-5-((N,N-dimethylsulfamoyl)amino)tetrahydro-2H-pyran-2-yl)methyl)-2,7-diazaspiro[3.5]nonan-2-yl)pyrimidin-5-yl)oxy)-5-fluoro-N-isopropylbenzamide] | ++ (“++” means ≥33% and <66%) | < 1 | +++ (“+++” means ≥66%) | < 50 |  |  |  | < 25000
CC(C)N(C(=O)c1cc(F)ccc1Oc1cncnc1N1CC2(CCN(C[C@@H]3CC[C@@H](NS(=O)(=O)N(C)C)CO3)CC2)C1)[C@H]1CCOC1 [Compound 177, 2-((4-(7-(((2S,5R)-5-((N,N-Dimethylsulfamoyl)amino)tetrahydro-2H-pyran-2-yl)methyl)-2,7-diazaspiro[3.5]nonan-2-yl)pyrimidin-5-yl)oxy)-5-fluoro-N-isopropyl-N-((S)-tetrahydrofuran-3-yl)benzamide] | +++ (“+++” means ≥66%) | < 1 | +++ (“+++” means ≥66%) |  |  |  |  | 
CC(C)N(C(=O)c1cc(F)ccc1Oc1cncnc1N1CC2(CCN(C[C@@H]3CC[C@@H](NS(=O)(=O)c4cnn(C5CC5)c4)CO3)CC2)C1)C(C)C [Compound 83, 2-((4-(7-(((2S,5R)-5-((1-Cyclopropyl-1H-pyrazole)-4-sulfonamido)tetrahydro-2H-pyran-2-yl)methyl)-2,7-diazaspiro[3.5]nonan-2-yl)pyrimidin-5-yl)oxy)-5-fluoro-N,N-diisopropylbenzamide] | ++ (“++” means ≥33% and <66%) | < 1 | +++ (“+++” means ≥66%) |  |  |  |  | 
CC(C)N(C(=O)c1cc(F)ccc1Oc1cncnc1N1CC2(CCN(C[C@@H]3CC[C@@H](NS(=O)(=O)N(C)C)CO3)CC2)C1)C1COC1 [Compound 249, 2-((4-(7-(((2S,5R)-5-((N,N-Dimethylsulfamoyl)amino)tetrahydro-2H-pyran-2-yl)methyl)-2,7-diazaspiro[3.5]nonan-2-yl)pyrimidin-5-yl)oxy)-5-fluoro-N-isopropyl-N-(oxetan-3-yl)benzamide] | +++ (“+++” means ≥66%) | < 1 |  |  |  |  |  | 
Cc1ncc(S(=O)(=O)N[C@@H]2CC[C@@H](CN3CCC4(CC3)CN(c3ncncc3Oc3ccc(F)cc3C(=O)N(C(C)C)C(C)C)C4)OC2)s1 [Compound 84, 5-Fluoro-N,N-diisopropyl-2-((4-(7-(((2S,5R)-5-((2-methylthiazole)-5-sulfonamido)tetrahydro-2H-pyran-2-yl)methyl)-2,7-diazaspiro[3.5]nonan-2-yl)pyrimidin-5-yl)oxy)benzamide] | + (“+” means <33%) | < 1 | ++ (“++” means ≥33% and <66%) |  |  |  |  | 
CCS(=O)(=O)N[C@@H]1CC[C@@H](CN2CCC3(CC2)CN(c2ncncc2Oc2ccc(F)cc2C(=O)N(CCC#N)C(C)C)C3)OC1 [Compound 43, N-(2-cyanoethyl)-2-((4-(7-(((2S,5R)-5-(ethylsulfonamido)tetrahydro-2H-pyran-2-yl)methyl)-2,7-diazaspiro[3.5]nonan-2-yl)pyrimidin-5-yl)oxy)-5-fluoro-N-isopropylbenzamide] | ++ (“++” means ≥33% and <66%) | < 1 | +++ (“+++” means ≥66%) | < 50 |  |  |  | 
CCNS(=O)(=O)N[C@@H]1CC[C@@H](CN2CCC3(CC2)CN(c2ncncc2Oc2ccc(F)cc2C(=O)N(CC)C(C)C)C3)OC1 [Compound 141, N-Ethyl-2-((4-(7-(((2S,5R)-5-((N-ethylsulfamoyl)amino)tetrahydro-2H-pyran-2-yl)methyl)-2,7-diazaspiro[3.5]nonan-2-yl)pyrimidin-5-yl)oxy)-5-fluoro-N-isopropylbenzamide] | +++ (“+++” means ≥66%) | < 1 |  |  |  |  |  | 
